As a reminder, the IC50 is the concentration that inhibits the measured activity by half. Low readings indicate greater potency in that assay, high ones weaker potency in that assay.

In this assay the target is Sodium-dependent dopamine transporter (Rattus norvegicus, UniProt P23977). In words: Inhibition of [3H]3-beta-(p-fluorophenyl)tropane-2beta-carboxylic acid methyl ester [3H]7a binding to Dopamine transporter of rat striatal membranes. In kind it is cell membranes, Membrane.
Sodium-dependent dopamine transporter, sequence (P23977 whole entry): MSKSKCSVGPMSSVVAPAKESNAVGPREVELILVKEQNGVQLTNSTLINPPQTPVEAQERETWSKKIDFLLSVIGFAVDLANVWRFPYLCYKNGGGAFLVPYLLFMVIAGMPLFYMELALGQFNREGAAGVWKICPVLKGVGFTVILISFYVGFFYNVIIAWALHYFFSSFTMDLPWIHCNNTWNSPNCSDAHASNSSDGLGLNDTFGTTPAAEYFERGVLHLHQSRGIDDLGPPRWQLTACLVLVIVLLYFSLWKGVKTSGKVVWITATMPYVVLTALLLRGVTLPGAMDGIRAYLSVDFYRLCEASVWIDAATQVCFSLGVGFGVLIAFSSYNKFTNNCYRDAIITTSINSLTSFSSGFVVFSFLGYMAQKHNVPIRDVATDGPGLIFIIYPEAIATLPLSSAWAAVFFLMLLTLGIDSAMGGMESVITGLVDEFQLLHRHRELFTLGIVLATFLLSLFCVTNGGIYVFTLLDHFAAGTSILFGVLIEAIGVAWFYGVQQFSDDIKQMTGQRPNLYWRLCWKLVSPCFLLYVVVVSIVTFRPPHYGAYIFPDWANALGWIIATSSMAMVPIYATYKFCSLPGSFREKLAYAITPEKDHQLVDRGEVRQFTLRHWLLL
`CN1[C@@H]2CC[C@H]1C[C@H](OC(=O)c1ccccc1)C2` gave an IC50 of 21.2 µM.

Regarding `COC(=O)C1C(OC(=O)c2ccccc2)C[C@H]2CCC1N2C(C)=O` (some centres undefined), the half-maximal inhibitory concentration (IC50) amounted to 3.37 µM.

On to `COC(=O)C1C2CC[C@H](CC1OC(=O)c1ccccc1)N2` (some centres undefined), for which the IC50 came to 0.303 µM.

Take `COC(=O)C1C(OC(=O)c2ccccc2)C[C@H]2CCC1N2Cc1ccccc1` (some centres undefined): the IC50 turned out to be 0.668 µM.

Molecule `COC(=O)C1C(OC(=O)c2ccccc2)C[C@H]2CCC1[N+]2(C)C` (some centres undefined) showed a concentration for half-maximal inhibition (IC50) of 10.7 µM.

The molecule `CN1CC2CC1C[C@@H](OC(=O)c1ccccc1)C2` (stereo in doubt; 4c) returned an IC50 of 19.8 µM.

For `CN1CC2CC1C[C@@H](OC(=O)c1ccccc1)C2` (stereo in doubt; 4d), the IC50 worked out at 4.95 µM.

In turn, `CN1CC2CC(OC(=O)c3ccccc3)CC1C2` (stereo in doubt; 4d-(+)) had an IC50 of 2.94 µM.

In turn, `CN1CC2CC(OC(=O)c3ccccc3)CC1C2` (stereo in doubt; 4d-(-)) yielded a half-inhibitory concentration (IC50) of 2.85 µM.

For the origin of these results see ChEMBL document CHEMBL1126012 (J Med Chem, 1992).
